Reference: patent US10611740B2, “Aryl dihydro-2H-benzo[b][1,4]oxazine sulfonamide and related compounds for use as agonists of RORγ and the treatment of disease” (Lycera Corporation, priority 2015, dated 2020)

Key:
[1] = biological target: T1, RORγ-LBD (Homo sapiens, UniProt P51449); assay: RORγ-Ligand Binding Domain (LBD) TR-FRET Assay; format: biochemical;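 for TR-FRET Assay Max Response: 665/615 nm ratio relative to signal without ursolic acid or compound set at 100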
T1 construct: made in house; host or cells: SF9 cells (baculovirus)
T1 sequence (P51449 269-508 limits assumed): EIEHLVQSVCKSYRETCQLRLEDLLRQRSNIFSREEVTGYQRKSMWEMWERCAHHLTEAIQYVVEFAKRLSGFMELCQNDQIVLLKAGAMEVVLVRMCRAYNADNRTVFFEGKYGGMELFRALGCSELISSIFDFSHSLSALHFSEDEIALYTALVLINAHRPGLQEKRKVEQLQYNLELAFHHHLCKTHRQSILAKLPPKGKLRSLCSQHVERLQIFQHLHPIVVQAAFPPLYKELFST
Summary of the method: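 TR-FRET read-out using a biotin-tagged SRC1 coactivator LXXLL peptide (200 nM final), with the antagonist ursolic acid present at 2 μM final. Receptor is His-tagged LBD expressed in SF9 cells, ~3 nM final in pH 7.0 Tris/KCl/EDTA/DTT/BSA buffer; compounds in 1% DMSO final.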

[2] = biological target: T2, Gal4-RORγ-LBD (Homo sapiens, UniProt P51449); assay: Gal4-RORγ Luciferase Reporter Assay in HEK-293T Cells; format: cell-based; conditions: HEK-293 cells
T2 construct: expressed in transfected cells; host or cells: HEK-293 cells (pcDNA3.1neo plasmid)
T2 sequence (P51449 269-508 limits assumed): T1 sequence (P51449 269-508 limits assumed)
Summary of the method: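 Luminescence read-out (One-Glo, 10 min RT) after overnight compound exposure at 37 °C in HEK-293 cells carrying Gal4-RORγ-LBD plus a Gal4-luciferase reporter, in the presence of 2 μM ursolic acid. Max Response is the upper plateau from a 4-parameter logistic fit, normalized to untreated signal = 100.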

[3] = luciferase reporter, with 2 μM ursolic acid

| SMILES | EC50 [1] [nM] | TR-FRET Assay Max Response [1] | EC50 [2, 3] [nM] | Gal4-RORγ Assay Max Response [2, 3] | EC50 ([2]; 2 μM ursolic acid) [nM] | Gal4-RORγ Assay Max Response ([2]; 2 μM ursolic acid) |
| --- | --- | --- | --- | --- | --- | --- |
| O=C(O)C1CCN(C(=O)CC[C@H]2CN(S(=O)(=O)c3cccc(C(F)(F)F)c3)c3cc(-c4cccc(Cl)c4)cc(F)c3O2)CC1 [Compound 9, (S)-1-(3-(6-(3-chlorophenyl)-8-fluoro-4-((3-(trifluoromethyl)phenyl)sulfonyl)-3,4-dihydro-2H-benzo[b][1,4]oxazin-2-yl)propanoyl)piperidine-4-carboxylic acid] | < 500 | **** (The symbol “****” indicates a value greater than 200) | < 500 | ** (The symbol “**” indicates a value in the range of greater than 90 to 150) |  |  |
| CC(C)(O)CC[C@H]1CN(S(=O)(=O)c2cccc(C(F)(F)F)c2)c2cc(-c3cc(F)ccc3F)ccc2O1 [Compound 10, (S)-4-(6-(2,5-difluorophenyl)-4-((3-(trifluoromethyl)phenyl)sulfonyl)-3,4-dihydro-2H-benzo[b][1,4]oxazin-2-yl)-2-methylbutan-2-ol] | < 500 | **** (The symbol “****” indicates a value greater than 200) | < 500 | ** (The symbol “**” indicates a value in the range of greater than 90 to 150) |  |  |
| O=c1[nH]nc(CC[C@H]2CN(S(=O)(=O)c3cccc(C(F)(F)F)c3)c3cc(-c4cc(F)ccc4F)ccc3O2)o1 [Compound 11, (S)-5-(2-(6-(2,5-difluorophenyl)-4-((3-(trifluoromethyl)phenyl)sulfonyl)-3,4-dihydro-2H-benzo[b][1,4]oxazin-2-yl)ethyl)-1,3,4-oxadiazol-2(3H)-one] | < 500 | **** (The symbol “****” indicates a value greater than 200) | < 500 | ** (The symbol “**” indicates a value in the range of greater than 90 to 150) |  |  |
| CC(C)(C)OC(=O)NCC[C@H]1CN(S(=O)(=O)c2cccc(C(F)(F)F)c2)c2cc(-c3cc(F)ccc3F)ccc2O1 [Compound 12, tert-butyl (S)-(2-(6-(2,5-difluorophenyl)-4-((3-(trifluoromethyl)phenyl)sulfonyl)-3,4-dihydro-2H-benzo[b][1,4]oxazin-2-yl)ethyl)carbamate] | < 500 | **** (The symbol “****” indicates a value greater than 200) | < 500 | * (The symbol “*” indicates a value in the range of 25 to 90) |  |  |
| CC(=O)NCC[C@H]1CN(S(=O)(=O)c2cccc(C(F)(F)F)c2)c2cc(-c3cc(F)ccc3F)ccc2O1 [Compound 13, (S)—N-(2-(6-(2,5-difluorophenyl)-4-((3-(trifluoromethyl)phenyl)sulfonyl)-3,4-dihydro-2H-benzo[b][1,4]oxazin-2-yl)ethyl)acetamide] | < 500 | **** (The symbol “****” indicates a value greater than 200) |  |  | < 500 | ** (The symbol “**” indicates a value in the range of greater than 90 to 150) |
| O=C(NC[C@H]1CN(S(=O)(=O)c2cccc(C(F)(F)F)c2)c2cc(-c3cc(F)ccc3F)ccc2O1)N1CCOCC1 [Compound 16, (S)—N-((6-(2,5-difluorophenyl)-4-((3-(trifluoromethyl)phenyl)sulfonyl)-3,4-dihydro-2H-benzo[b][1,4]oxazin-2-yl)methyl)morpholine-4-carboxamide] | < 500 | **** (The symbol “****” indicates a value greater than 200) |  |  | < 500 | ** (The symbol “**” indicates a value in the range of greater than 90 to 150) |
| CC(C)(O)C(=O)NC[C@H]1CN(S(=O)(=O)c2cccc(C(F)(F)F)c2)c2cc(-c3cc(F)ccc3F)ccc2O1 [Compound 17, (S)—N-((6-(2,5-difluorophenyl)-4-((3-(trifluoromethyl)phenyl)sulfonyl)-3,4-dihydro-2H-benzo[b][1,4]oxazin-2-yl)methyl)-2-hydroxy-2-methylpropanamide] | < 500 | **** (The symbol “****” indicates a value greater than 200) |  |  | < 500 | ** (The symbol “**” indicates a value in the range of greater than 90 to 150) |
| O=C(O)C1CC(=O)N(C[C@H]2CN(S(=O)(=O)c3cccc(C(F)(F)F)c3)c3cc(-c4cc(F)ccc4F)ccc3O2)C1 (stereo partly drawn) [Compound 18, 1-(((S)-6-(2,5-difluorophenyl)-4-((3-(trifluoromethyl)phenyl)sulfonyl)-3,4-dihydro-2H-benzo[b][1,4]oxazin-2-yl)methyl)-5-oxopyrrolidine-3-carboxylic acid] | < 500 | **** (The symbol “****” indicates a value greater than 200) |  |  | 500 to 5000 | ** (The symbol “**” indicates a value in the range of greater than 90 to 150) |
| O=C(O)CCC[C@H]1CN(S(=O)(=O)c2cccc(C(F)(F)F)c2)c2cc(-c3cccc(F)c3F)ccc2O1 [Compound 21A, (S)-4-(6-(2,3-difluorophenyl)-4-((3-(trifluoromethyl)phenyl)-sulfonyl)-3,4-dihydro-2H-benzo[b][1,4]oxazin-2-yl)butanoic acid] | < 500 | **** (The symbol “****” indicates a value greater than 200) | < 500 | ** (The symbol “**” indicates a value in the range of greater than 90 to 150) |  |  |
| COc1cccc(-c2ccc3c(c2)N(S(=O)(=O)c2cccc(C(F)(F)F)c2)C[C@H](CCCC(=O)O)O3)c1 [Compound 21B, (S)-4-(6-(3-methoxyphenyl)-4-((3-(trifluoromethyl)phenyl)sulfonyl)-3,4-dihydro-2H-benzo[b][1,4]-oxazin-2-yl)butanoic acid] | < 500 | **** (The symbol “****” indicates a value greater than 200) | < 500 | ** (The symbol “**” indicates a value in the range of greater than 90 to 150) |  |  |
| O=C(O)CCC[C@H]1CN(S(=O)(=O)c2cccc(C(F)(F)F)c2)c2cc(-c3cccc(C(F)(F)F)n3)ccc2O1 [Compound 21C, (S)-4-(4-((3-(trifluoromethyl)-phenyl)sulfonyl)-6-(6-(trifluoromethyl)pyridin-2-yl)-3,4-dihydro-2H-benzo[b][1,4]oxazin-2-yl)butanoic acid] | < 500 | **** (The symbol “****” indicates a value greater than 200) | < 500 | *** (The symbol “***” indicates a value in the range of greater than 150 to 200) |  |  |
| O=C(O)CCC[C@H]1CN(S(=O)(=O)c2cccc(C(F)(F)F)c2)c2cc(-c3cc(F)cc(F)c3Cl)ccc2O1 [Compound 21D, (S)-4-(6-(2-chloro-3,5-difluorophenyl)-4-((3-(trifluoromethyl)phenyl)sulfonyl)-3,4-dihydro-2H-benzo[b][1,4]-oxazin-2-yl)butanoic acid] | < 500 | *** (The symbol “***” indicates a value in the range of greater than 150 to 200) | < 500 | *** (The symbol “***” indicates a value in the range of greater than 150 to 200) |  |  |
| O=C(O)CC[C@H]1CN(S(=O)(=O)c2cccc(C(F)(F)F)c2)c2cc(-c3cccc(C(F)(F)F)n3)cc(F)c2O1 [Compound 22A, (S)-3-(8-fluoro-4-((3-(trifluoromethyl)phenyl)-sulfonyl)-6-(6-(trifluoromethyl)pyridin-2-yl)-3,4-dihydro-2H-benzo[b][1,4]oxazin-2-yl)propanoic acid] | < 500 | **** (The symbol “****” indicates a value greater than 200) | < 500 | ** (The symbol “**” indicates a value in the range of greater than 90 to 150) |  |  |
| O=C(O)CC[C@H]1CN(S(=O)(=O)c2cccc(C(F)(F)F)c2)c2cc(-c3cccc(F)c3F)c(Cl)cc2O1 [Compound 22B, (S)-3-(7-chloro-6-(2,3-difluorophenyl)-4-((3-(trifluoromethyl)phenyl)sulfonyl)-3,4-dihydro-2H-benzo[b][1,4]-oxazin-2-yl)propanoic acid] | < 500 | **** (The symbol “****” indicates a value greater than 200) | < 500 | ** (The symbol “**” indicates a value in the range of greater than 90 to 150) |  |  |
| COc1cccc(-c2cc3c(cc2Cl)O[C@@H](CCC(=O)O)CN3S(=O)(=O)c2cccc(C(F)(F)F)c2)c1 [Compound 22C, (S)-3-(7-chloro-6-(3-methoxyphenyl)-4-((3-(trifluoromethyl)phenyl)sulfonyl)-3,4-dihydro-2H-benzo[b][1,4]-oxazin-2-yl)propanoic acid] | < 500 | **** (The symbol “****” indicates a value greater than 200) | < 500 | ** (The symbol “**” indicates a value in the range of greater than 90 to 150) |  |  |
